Consider eight compounds from patent publication US20060069132A1, “Azolecarboxamide herbicides” (priority 2004, published 2006).

Read-outs that look alike come from different tables or passages of the source.

Assay [1] relates to rice. The experiment in a line: Test B pre-/postemergence herbicide test. Type of assay: in vivo, Oryza sativa. The note with it: 0 = no effect, 100 = complete control; for plant injury at 125 g/ha: read-out: Rice plant response rating (0 to 100 scale). An outline of the steps: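 Greenhouse pot assay with simultaneous preemergence (treated seed) and postemergence (2–18 cm seedlings) applications of surfactant-containing, non-phytotoxic solvent formulations. Response scored visually 13–15 days later on a 0–100 scale, 100 meaning complete control.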

Another assay concerns morningglory. The experiment in a line: Test A pre-/postemergence herbicide test. Type of assay: in vivo, Ipomoea spp. Particulars: for pest or weed control at 125 g/ha / pest or weed control at 500 g/ha: Ipomoea, 240 h, read-out: Morningglory plant response rating; for pest or weed control at 125 g/ha: 125 g ai/ha. The gist of the method:
(§1)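 Pre: seeded sandy loam, directed soil spray, compound in non-phytotoxic solvent + surfactant. Post: 1–2-leaf plants (2–10 cm), sprayed to runoff. Greenhouse ~10 d; visual injury vs untreated, 0–100 scale.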

The test system of another assay is velvetleaf. Nature of the assay: Test A pre-/postemergence herbicide test. Type of assay: in vivo, Abutilon theophrasti. The note with it: for pest or weed control at 125 g/ha / pest or weed control at 500 g/ha: Abutilon theophrasti, 240 h, read-out: Velvetleaf plant response rating; for pest or weed control at 125 g/ha: 125 g ai/ha. An outline of the steps:
as §1

The test system of assay [2] is rice. The experiment in a line: Test C flooded paddy test. Type of assay: in vivo, Oryza sativa. An outline of the steps: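 Postemergence sprays applied to plants 2 to 18 cm tall (1- to 4-leaf stage); paddy species grown to 2-leaf stage under flooding. After 12 to 14 days in greenhouse, visual rating versus untreated controls on 0–100 scale (0 no effect, 100 complete control).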

In another assay the test system is cocklebur. Nature of the assay: Test C pre-/postemergence herbicide test. Type of assay: in vivo, Xanthium strumarium. Particulars: preemergence. The text has this:
(§2) Seeds of plant species selected from bermudagrass (Cynodon dactylon (L.) Pers.), Surinam grass (Urochloa decumbens (Staph) R. D. Webster, previously named Brachiaria decumbens Stapf), cocklebur (Xanthium strumarium L.), corn (Zea mays L.), large crabgrass (Digitaria sanguinalis (L.) Scop.), woolly cupgrass (Eriochloa villosa (Thunb.) Kunth), giant foxtail (Setaria faberi Herrm.), goosegrass (Eleusine indica (L.) Gaertn.), johnsongrass (Sorghum halepense (L.) Pers.), kochia (Kochia scoparia (L.) Schrad.), lambsquarters (Chenopodium album L.), morningglory (Ipomoea coccinea L.), eastern black nightshade (Solanum ptycanthum Dunal), yellow nutsedge (Cyperus esculentus L.), pigweed (Amaranthus retroflexus L.), common ragweed (Ambrosia elatior L.), soybean (Glycine max (L.) Merr.), common (oilseed) sunflower (Helianthus annuus L.) and velvetleaf (Abutilon theophrasti Medik.) were planted and treated preemergence with test chemicals formulated in a non-phytotoxic solvent mixture which included a surfactant.
(§3) At the same time, plants selected from these crop and weed species and also winter barley (Hordeum vulgare L.), blackgrass (Alopecurus myosuroides Huds.), canarygrass (Phalaris minor Retz.), chickweed (Stellaria media (L.) Vill.), downy bromegrass (Bromus tectorum L.), green foxtail (Setaria viridis (L.) Beauv.), Italian ryegrass (Lolium multiflorum Lam.), wheat (Triticum aestivum L.), wild oat (Avenafatua L.) and windgrass (Apera spica-venti (L.) Beauv.) were treated with postemergence applications of some of the test chemicals formulated in the same manner. Plants ranged in height from 2 to 18 cm (1- to 4-leaf stage) for postemergence treatments. Plant species in the flooded paddy test consisted of rice (Oryza sativa), smallflower umbrella sedge (Cyperus difformis L.), ducksalad (Heteranthera limosa (Sw.) Willd.) and barnyardgrass (Echinochloa crus-galli (L.) Beauv.) grown to the 2-leaf stage for testing. Treated plants and controls were maintained in a greenhouse for 12 to 14 days, after which time all species were compared to controls and visually evaluated. Plant response ratings, summarized in Table C, are based on a scale of 0 to 100 where 0 is no effect and 100 is complete control. A dash (-) response means no test result.

In a further assay the test system is lambsquarters. Nature of the assay: Test C pre-/postemergence herbicide test. Type of assay: in vivo, Chenopodium album. The note with it: preemergence; for Plant response rating (0 = no effect, 100 = complete control), Lambsquarters: 125 g ai/ha.
Text: as §2, §3

Another assay relates to yellow nutsedge. The experiment in a line: Test C pre-/postemergence herbicide test. Type of assay: in vivo, Cyperus esculentus. Particulars: 250 g ai/ha; scale 0-100; preemergence.
Text: as §2, §3

The subject of another assay is common ragweed. The experiment in a line: Test C pre-/postemergence herbicide test. Type of assay: in vivo, Ambrosia elatior. The arrangement: key to Plant response rating, Ragweed: 0 = no effect, 100 = complete control. Particulars: preemergence; for Plant response rating (0 = no effect, 100 = complete control), Ragweed: 125 g ai/ha.
Text: as §2, §3

[3] abbreviates: Oryza sativa, pre-emergence, 336 h, 125 g ai/ha.
Setting [4] is: Postemergence, 500 g ai/ha, 0 to 100 scale, 0 no effect, 100 complete control.
Where [5] appears, read: Postemergence, 2000 g ai/ha, 0 to 100 scale, 0 no effect, 100 complete control.
Where [6] appears, read: Preemergence, 2000 g ai/ha, visual rating, 0 to 100 scale (0 no effect, 100 complete control).
Where [7] appears, read: preemergence, 500 g ai/ha, visual injury, 0 to 100 scale (0 no effect, 100 complete control).
The mark [8] stands for this setting: 125 g ai/ha, scale 0 to 100 (0 no effect, 100 complete control).
Where [9] appears, read: 250 g ai/ha, scale of 0 to 100, 0 is no effect, 100 is complete control.
Where [10] appears, read: 500 g ai/ha, visual rating after 12 to 14 days, scale 0 to 100 (0 no effect, 100 complete control).
Where [11] appears, read: 500 g ai/ha, scale 0 to 100 (0 no effect, 100 complete control), visual, 12 to 14 days.
Where [12] appears, read: post-emergence, Postemergence, 0 to 100 scale, 0 no effect, 100 complete control.
Where [13] appears, read: post-emergence, Postemergence, 500 g ai/ha, 0 to 100 scale, 0 no effect, 100 complete control.
The mark [14] stands for this setting: pre-emergence, preemergence, visual injury, 0 to 100 scale (0 no effect, 100 complete control).
Setting [15] is: pre-emergence, preemergence, 500 g ai/ha, visual injury, 0 to 100 scale (0 no effect, 100 complete control).

Turning to `CCc1cn(C(C)(C)C)nc1C(=O)Nc1cccc(C(=O)N(CC)CC)c1` [Compound 168, N-[3-[(diethylamino)carbonyl]phenyl]-1-(1,1-dimethylethyl)-4-ethyl-1H-pyrazole-3-carboxamide], in the assay on rice [1] (setting [3]), the plant injury at 125 g/ha was 0%.
Regarding `C=CCN(C)C(=O)c1cccc(NC(=O)c2cc(C(C)(C)C)nn2CC)c1` [Compound 285], the “Morningglory plant response rating” value stood at 40 in the assay with morningglory (setting [4]), 45 with morningglory (setting [6]) and 25 in the assay on morningglory (setting [7]). In addition, the “Plant response rating, Morningglory” value in the assay with morningglory (setting [5]) was found to be 50. The “Velvetleaf plant response rating” value with velvetleaf (setting [4]) was 60; in the assay with velvetleaf (setting [6]), 40; in the assay with velvetleaf (setting [7]), 35. The “Plant response rating, Velvetleaf” value in the assay with velvetleaf (setting [5]) is 75. Also, in the assay on rice [1] (125 g ai/ha, preemergence), the “Rice plant response rating (0 to 100 scale)” value came out at 40. Further, the “Plant response rating, Rice” value in the assay with rice [1] (500 g ai/ha, visual rating, preemergence) is on record as 80; with rice [2] (setting [10]), 65. Besides, the “Rice plant response rating” value in the assay on rice [2] (62 g ai/ha, scale 0 to 100) amounted to 25; with rice [2] (setting [8]), 40; with rice [2] (setting [9]), 45.
As for `C=Cn1nc(C(C)(C)C)cc1C(=O)Nc1cccc(C(C)=O)c1` [Compound 127], the “Morningglory plant response rating” value in the assay with morningglory (setting [4]) was 10; with morningglory (Preemergence, 500 g ai/ha, visual rating, 0 to 100 scale (0 no effect, 100 complete control)), 30; in the assay on morningglory (setting [6]) it was 30. For the same compound, the “Plant response rating, Morningglory” value in the assay on morningglory (setting [5]) is listed as 20. Moreover, the “Velvetleaf plant response rating” value is recorded as 0 with velvetleaf (setting [4]), 30 in the assay with velvetleaf (setting [6]) and 10 in the assay on velvetleaf (setting [7]). For the same compound, in the assay with velvetleaf (setting [5]), the “Plant response rating, Velvetleaf” value was found to be 0. Also, the “Rice plant response rating” value in the assay on rice [2] (62 g ai/ha, scale 0 to 100 (0 no effect, 100 complete control)) came to 20; in the assay with rice [2] (setting [8]) it was 25; in the assay with rice [2] (setting [9]) it was 25. In addition, the “Plant response rating, Rice” value in the assay on rice [2] (setting [10]) stood at 25.
For the compound `Cc1nn(C(C)(C)C)nc1C(=O)Nc1cccc(C(=O)N2CC=CC2)c1` [Compound 393], the “Plant response rating, Cocklebur” value in the assay on cocklebur (62 g ai/ha, scale 0 to 100) worked out at 0; in the assay with cocklebur (250 g ai/ha, scale 0-100), 100; with cocklebur (setting [11]) it was 100. The “Plant response rating (0 = no effect, 100 = complete control), Cocklebur” value in the assay with cocklebur (125 g ai/ha) was 100. The “Plant response rating, Lambsquarters” value worked out at 100 with lambsquarters (62 g ai/ha, scale 0 to 100); 100 with lambsquarters (250 g ai/ha, scale 0-100); 100 with lambsquarters (setting [11]). Besides, the “Plant response rating (0 = no effect, 100 = complete control), Lambsquarters” value in the assay with lambsquarters is reported as 100. Moreover, the “Plant response rating, Nutsedge, Yellow” value with yellow nutsedge was found to be 50. Moreover, the “Plant response rating, Ragweed” value in the assay on common ragweed (62 g ai/ha, scale 0 to 100) amounted to 20; in the assay on common ragweed (250 g ai/ha, scale 0-100) it was 100; with common ragweed (setting [11]) it was 100. For the same compound, the “Plant response rating (0 = no effect, 100 = complete control), Ragweed” value with common ragweed was 100. Moreover, the “Rice plant response rating” value in the assay on rice [2] (62 g ai/ha, scale 0 to 100) is on record as 45; in the assay with rice [2] (setting [8]) it was 75; with rice [2] (setting [9]), 80. For the same compound, the “Plant response rating, Rice” value in the assay on rice [2] (setting [10]) turned out to be 85.
For `CCn1nc(C(C)(C)C)c(F)c1C(=O)Nc1cc(C(=O)N(C)C)ccc1F` [Compound 276, N-[5-[(dimethylamino)carbonyl]-2-fluorophenyl]-3-(1,1-dimethylethyl)-1-ethyl-4-fluoro-1H-pyrazole-5-carboxamide], the plant injury at 125 g/ha is 50% in the assay on rice [1] (setting [3]) and 15% in the assay on rice [2] (Oryza sativa, 125 g ai/ha, scale 0 to 100 (0 no effect, 100 complete control), read-out: Rice plant response rating). In addition, the plant injury at 500 g/ha in the assay with rice [1] (Oryza sativa, pre-emergence, 336 h, 500 g ai/ha, visual rating, read-out: Plant response rating, Rice) was 80%; in the assay on rice [2] (Oryza sativa, 500 g ai/ha, visual rating after 12 to 14 days, scale 0 to 100 (0 no effect, 100 complete control), read-out: Plant response rating, Rice) it was 70%. Besides, the plant injury at 62 g/ha with rice [2] (Oryza sativa, 62 g ai/ha, scale 0 to 100, read-out: Rice plant response rating) amounted to 0%. Besides, the plant injury at 250 g/ha in the assay on rice [2] (Oryza sativa, 250 g ai/ha, scale of 0 to 100, 0 is no effect, 100 is complete control, read-out: Rice plant response rating) amounted to 50%.
As to `CCc1nn(C(C)(C)C)nc1C(=O)Nc1cccc(C(=O)N(C)CC)c1` [Compound 384], the “Plant response rating, Lambsquarters” value in the assay on lambsquarters (62 g ai/ha, scale 0 to 100) turned out to be 100; with lambsquarters (250 g ai/ha, scale 0-100), 100. Also, the “Plant response rating (0 = no effect, 100 = complete control), Lambsquarters” value in the assay with lambsquarters worked out at 100. The “Plant response rating, Ragweed” value in the assay with common ragweed (62 g ai/ha, scale 0 to 100) was found to be 100; in the assay with common ragweed (250 g ai/ha, scale 0-100), 100. Further, the “Plant response rating (0 = no effect, 100 = complete control), Ragweed” value in the assay with common ragweed came out at 100. Further, the “Rice plant response rating” value in the assay with rice [2] (62 g ai/ha, scale 0 to 100) was determined as 60; in the assay on rice [2] (setting [8]), 65; in the assay with rice [2] (setting [9]), 80. The “Plant response rating, Rice” value in the assay with rice [2] (setting [10]) was 80.
Take `CCNC(=O)c1ccc(F)c(NC(=O)c2c3c(nn2CC)C(C)(C)CC3)c1` [Compound 353]: the “Rice plant response rating” value in the assay on rice [2] (62 g ai/ha, scale 0 to 100) is given as 0; with rice [2] (setting [8]), 0; in the assay with rice [2] (setting [9]) it was 20. The “Plant response rating, Rice” value in the assay on rice [2] (setting [10]) came to 40.
With `CCNC(=O)c1cccc(NC(=O)c2nc(C(C)(C)C)nn2CC)c1` [Compound 446, 3-(1,1-dimethylethyl)-1-ethyl-N-[3-[(ethylamino)carbonyl]phenyl]-1H-1,2,4-triazole-5-carboxamide], the pest or weed control at 125 g/ha with morningglory (setting [12]) turned out to be 10%; with morningglory (setting [14]) it was 10%; with velvetleaf (setting [12]), 30%; in the assay on velvetleaf (setting [14]), 10%. Also, the pest or weed control at 500 g/ha in the assay on morningglory (setting [13]) is 40%; in the assay with morningglory (setting [15]), 15%; in the assay with velvetleaf (setting [13]), 60%; in the assay with velvetleaf (setting [15]) it was 20%.
